# Data taken from ChEMBL document CHEMBL4823326 (ACS Med Chem Lett, 2021).
# Biological target: Prolyl endopeptidase (Sus scrofa, UniProt P23687)
# Assay: Inhibition of recombinant porcine PREP expressed in Escherichia coli using Suc-Gly-Pro-AMC as substrate preincubated for 30 mins followed by substrate addition and measured after 60 mins by multilabel counter analysis
# Prolyl endopeptidase, sequence (P23687 whole entry): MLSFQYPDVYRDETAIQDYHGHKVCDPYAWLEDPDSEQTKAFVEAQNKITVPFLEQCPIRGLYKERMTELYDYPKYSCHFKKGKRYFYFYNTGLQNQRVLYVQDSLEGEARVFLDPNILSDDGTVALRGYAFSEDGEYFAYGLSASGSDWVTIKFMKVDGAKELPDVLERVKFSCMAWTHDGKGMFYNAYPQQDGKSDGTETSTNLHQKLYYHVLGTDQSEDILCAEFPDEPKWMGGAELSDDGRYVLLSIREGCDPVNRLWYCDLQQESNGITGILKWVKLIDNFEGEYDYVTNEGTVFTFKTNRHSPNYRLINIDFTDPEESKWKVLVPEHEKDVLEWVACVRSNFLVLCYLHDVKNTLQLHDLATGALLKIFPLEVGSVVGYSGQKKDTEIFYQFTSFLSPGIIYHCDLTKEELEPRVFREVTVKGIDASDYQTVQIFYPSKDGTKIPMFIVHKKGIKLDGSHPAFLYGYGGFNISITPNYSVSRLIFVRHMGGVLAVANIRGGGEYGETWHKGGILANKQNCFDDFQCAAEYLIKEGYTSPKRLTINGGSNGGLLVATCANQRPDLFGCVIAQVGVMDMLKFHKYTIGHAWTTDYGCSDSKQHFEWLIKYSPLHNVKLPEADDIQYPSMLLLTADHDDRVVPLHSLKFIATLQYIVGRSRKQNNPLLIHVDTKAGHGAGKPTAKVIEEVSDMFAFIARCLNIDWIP
row,SMILES,IC50
1,O=C(CCCc1ccccc1)N1CCC[C@H]1C(=O)N1CCC[C@H]1c1ccn[nH]1,70 µM
2,CN(CC(=O)N1CCC[C@H]1c1nnn[nH]1)C(=O)CCc1ccccc1,62 µM

# Continued, values first:
row,IC50,SMILES
1,12 µM,Cn1nnc([C@@H]2CCCN2C(=O)[C@@H]2CCCN2C(=O)CCCc2ccccc2)n1
2,29 µM,O=C(CCCc1ccccc1)N1CCC[C@H]1C(=O)N1CCC[C@H]1c1nnc[nH]1
3,55 µM,C[C@H](NC(=O)CCCc1ccccc1)C(=O)N1CCC[C@H]1c1nnc[nH]1

# Tested on: HEK293
# Assay: Induction of autophagy in human HEK293 cells expressing GFP-LC3B-RFP assessed as decrease in fluorescence at 10 uM after 24 hrs by multilabel counter method
# Type: functional
# Parameters: scale not given: the % may be the effect or the level left
row,SMILES,Activity
1,N#C[C@@H]1CCCN1C(=O)[C@@H]1CCCN1C(=O)CCCc1ccccc1,89%
